According to US20260317367A1, “SALTS INCLUDING CRYSTALLINE SALTS OF 25-HYDROXY-CHOLEST-5-EN-3-SULFATE AND METHODS FOR PREPARING SAME” (Durect Corporation, priority 2022, published 2026):
Counter-ions that a name gives are not always drawn.

Assays:
Format in all cases: physicochemical
[1] = Solid-state chemical stability of 25HC3S salts at 2-8° C., 60° C. and 80° C. (HPLC assay and degradation products); details: for % Impurities, Total / % Impurities, 25-HC: ND = Not Detected; for Overall physical and chemical stability (in words): 60° C.; for % Impurities, 25-HC: 25-Hydroxy-Cholesterol; for % Recovery: vs 2-8° C.; for Physical and chemical solid-state stability (comments) / Stability after 5 weeks at 80° C. (in words): 5 weeks; for Stability after 5 weeks at 80° C. (in words): solid state
How it was run: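 Crystalline 25HC3S salts (~25 mg powder per vial) stored at 2-8° C. or 80° C., pulled at 3 and 6 weeks; some 3-week 2-8° C. vials moved to 60° C. for 1 week. Dissolved in 100% methanol (sonication/vortexing, centrifugation or dilution), then HPLC against 25HC3S sodium standards (0.75-1.25 mg/mL) for assay and degradants.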

[2] = Angle of repose of 25HC3S salts; details: for Flow Property per USP<1174> Powder Flow: classification by angle of repose
How it was run: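 About 2 g of salt powder was poured through a 7 mm inner-diameter tube into a 21.14 mm rubber O-ring, forming a cone of fixed diameter. Cone height was measured with calipers and the angle of repose was calculated from it. Flow was classified per USP<1174>.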

[3] = Hausner ratio and compressibility index of 25HC3S salts; details: for Compressibility Index: Table C3 heads this index in %
How it was run: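 Powder poured into a 5 mL graduated cylinder to about 5.0 mL (Vo), tapped 200 then 100 more times on a hard surface; final volume Vf recorded after 300 taps. Compressibility index and Hausner ratio calculated from Vo and Vf; flow character classed per USP <1174>.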

[4] = Solubility of 25HC3S salts after one day at room temperature (HPLC, as free acid); details: one day
How it was run: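 25HC3S salts were shaken with excess solid at room temperature for one day in organic solvents or aqueous/biorelevant media (FaSSIF, FeSSIF, FaSSGF), then centrifuged. Supernatants were assayed by HPLC against a free-acid standard curve (11 μg/mL to 1.5 mg/mL); values are mg/mL free acid, LOD 0.0007 mg/mL.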

[5] = Appearance (color, clumping, flowability) of stored 25HC3S salts
[6] = 2-8° C., 3 wk, listed as 25HC3S diethanolamine
[7] = 2-8° C., 5 wk, listed as 25HC3S diethanolamine
[8] = 80° C., 3 wk, listed as 25HC3S diethanolamine
[9] = 80° C., 5 wk, listed as 25HC3S diethanolamine
[10] = 80° C., 5 wk, 50400 min, listed as 25HC3S diethanolamine
[11] = listed as 25HC3S diethanolamine
[12] = room temperature, listed as crystalline 25HC3S diethanolamine
[13] = 2-8° C., 3 wk, listed as 25HC3S t-butylammonium
[14] = 2-8° C., 5 wk, listed as 25HC3S t-butylammonium
[15] = 80° C., 3 wk, listed as 25HC3S t-butylammonium
[16] = 80° C., 5 wk, listed as 25HC3S t-butylammonium
[17] = 80° C., 5 wk, 50400 min, listed as 25HC3S t-butylammonium
[18] = listed as 25HC3S t-butylammonium

CC(CCCC(C)(C)O)C1CCC2C3CC=C4CC(OS(=O)(=O)O)CCC4(C)C3CCC12C (centres unmarked) [Salt #10]
Assay ([1]; 2-8° C., 3 wk, 30240 min, listed as 25HC3S diethanolamine): 100.2 % w/w
% Impurities, Total [1, 6]: 1.8%
Assay ([1]; 2-8° C., 5 wk, 50400 min, listed as 25HC3S diethanolamine): 107.0 % w/w
% Impurities, Total [1, 7]: 1.9%
Overall physical and chemical stability (in words) ([1]; 2-8° C., 80° C.): physically and chemically stable
Overall physical and chemical stability (in words) ([1]; 2-8° C., 80° C., listed as diethanolamine): relatively stable
% Impurities, 25-HC [1, 6]: 0.4%
% Impurities, 25-HC [1, 7]: 0.4%
% Impurities, 25-HC [1, 8]: 0.9%
% Impurities, 25-HC [1, 9]: 1.2%
Stressed stability at 80° C. (in words) ([1]; 80° C.): good, stressed stability
% Recovery ([1]; 80° C., 3 wk, 30240 min, listed as 25HC3S diethanolamine, 30240 min): 99.4%
Assay ([1]; 80° C., 3 wk, 30240 min, listed as 25HC3S diethanolamine): 99.6 % w/w
% Impurities, Total [1, 8]: 2.8%
Physical and chemical solid-state stability (comments) ([1]; 80° C.): Stable after 5 weeks at 80 °C physically and chemically.
% Recovery, 2-8° C./5 wk vs 80° C./5 wk [1, 10]: 97.7%
Assay [1, 10]: 104.5 % w/w
% Impurities, Total [1, 9]: 3.5%
Stability after 5 weeks at 80° C. (in words) ([1]; 80° C.): stable
Flow Property per USP<1174> Powder Flow [2, 11]: Passable - may hang up
Angle of Repose [2, 11]: 49.2 degrees
Angle of Repose, Rounded Whole Number [2, 11]: 49 degrees
Compressibility Index [3, 11]: 34
Hausner Ratio [3, 11]: 1.52
Solubility in FaSSGF (in words) ([4]; room temperature): high solubility
Solubility in FaSSIF (in words) ([4]; room temperature): high solubility
Solubility in FaSSIF (in words) [4, 12]: relatively high solubility
Solubility in FeSSIF (in words) ([4]; room temperature): high solubility
Solubility in FeSSIF (in words) [4, 12]: relatively high solubility
Solubility in FeSSIF ([4]; Fed State Simulated Intestinal Fluid, pH 4.9 to 5.0, room temperature, as free acid, 1440 min): 858 µg/mL
Solubility in methanol (in words) ([4]; MeOH, room temperature): did not reach saturation
Solubility in saline / 0.9% sodium chloride (in words) ([4]; saline, room temperature, listed as crystalline 25HC3S diethanolamine): low solubility
Appearance [5, 6]: White, free flowing powder with clumping
Appearance ([5]; 2-8° C., 5 wk): White, free flowing powder with clumping
Appearance [5, 8]: White, free flowing powder with clumping
Appearance ([5]; 80° C., 5 wk): White, free flowing powder with clumping

CC(CCCC(C)(C)O)C1CCC2C3CC=C4CC(OS(=O)(=O)O)CCC4(C)C3CCC12C (centres unmarked) [Salt #12]
Assay ([1]; 2-8° C., 3 wk, 30240 min, listed as 25HC3S t-butylammonium): 99.8 % w/w
% Impurities, Total [1, 13]: 1.5%
Assay ([1]; 2-8° C., 5 wk, 50400 min, listed as 25HC3S t-butylammonium): 106.2 % w/w
% Impurities, Total [1, 14]: 1.5%
Overall physical and chemical stability (in words) ([1]; 2-8° C., 80° C.): physically and chemically stable
Overall physical and chemical stability (in words) ([1]; 2-8° C., 80° C., listed as t-butylammonium): relatively stable
% Impurities, 25-HC [1, 13]: 0.3%
% Impurities, 25-HC [1, 14]: 0.3%
% Impurities, 25-HC [1, 15]: 0.3%
% Impurities, 25-HC [1, 16]: 0.2%
Stressed stability at 80° C. (in words) ([1]; 80° C.): good, stressed stability
% Recovery ([1]; 80° C., 3 wk, 30240 min, listed as 25HC3S t-butylammonium, 30240 min): 99.4%
Assay ([1]; 80° C., 3 wk, 30240 min, listed as 25HC3S t-butylammonium): 99.2 % w/w
% Impurities, Total [1, 15]: 1.7%
Physical and chemical solid-state stability (comments) ([1]; 80° C.): Stable after 5 weeks at 80 °C physically and chemically.
% Recovery, 2-8° C./5 wk vs 80° C./5 wk [1, 17]: 98.8%
Assay [1, 17]: 104.9 % w/w
% Impurities, Total [1, 16]: 1.6%
Stability after 5 weeks at 80° C. (in words) ([1]; 80° C.): stable
Flow Property per USP<1174> Powder Flow [2, 18]: Poor - must agitate,
Angle of Repose [2, 18]: 46.3 degrees
Angle of Repose, Rounded Whole Number [2, 18]: 46 degrees
Compressibility Index [3, 18]: 33
Hausner Ratio [3, 18]: 1.48
Solubility in FaSSGF (in words) ([4]; room temperature): high solubility
Solubility in FaSSIF (in words) ([4]; room temperature): high solubility
Solubility in FaSSIF (in words) ([4]; room temperature, listed as crystalline 25HC3S t-butylammonium): relatively high solubility
Solubility in FeSSIF (in words) ([4]; room temperature): high solubility
Appearance [5, 13]: White, free flowing powder with clumping
Appearance ([5]; 2-8° C., 5 wk): White, free flowing powder with clumping
Appearance [5, 15]: White, free flowing powder with clumping
Appearance ([5]; 80° C., 5 wk): White, free flowing powder with clumping
